Reference: ChEMBL document CHEMBL4184284, “MF-8, a novel promising arylpiperazine-hydantoin based 5-HT7 receptor antagonist: In vitro drug-likeness studies and in vivo pharmacological evaluation” (Bioorg Med Chem Lett, 2018)
Active and inactive are the calls of the source. No cut-off for these calls is given here.

Key:
[1] = Drug level in mouse liver microsomes treated with aripiprazole at 50 uM preincubated for 5 mins followed by NADPH addition measured after 30 mins by UPLC-MS analysis; format: ADME, microsome; conditions: 0.5 h
[2] = Drug level in rat liver microsomes treated with aripiprazole at 50 uM preincubated for 5 mins followed by NADPH addition measured after 30 mins by UPLC-MS analysis; format: ADME, microsome; conditions: 0.5 h
[3] = system: Mus musculus; test: Anxiolytic-like activity in Swiss albino mouse assessed as increase in number of punished crossings at 1.25 to 5 mg/kg, ip administered for 60 mins measured for 1 min post 3 sec electric shock by four-plate test; format: functional, organism-based
[4] = Effective permeability of the compound at 200 uM after 5 hrs by PAMPA; format: ADME; conditions: read-out: Peff
[5] = system: HepG2; test: Cytotoxicity against human HepG2 cells assessed as ATP level at 10 uM after 120 mins by bioluminescence-based assay relative to control; format: cell-based; conditions: hepg2, 2 h
[6] = system: Rattus norvegicus; test: Antidepressant-like activity in Wistar rat assessed as decrease in immobility time at 1.25 mg/kg, ip administered 30 mins prior to test measured for 5 mins by forced swim test; format: functional; design: scale not given: the % may be the effect or the level left
[7] = system: Mus musculus; test: Antidepressant-like activity in Swiss albino mouse assessed as decrease in immobility time at 10 mg/kg, ip administered 30 mins prior to test measured for last 4 mins of 6 mins observation by forced swim test; format: functional, organism-based
[8] = system: Rattus norvegicus; test: Antidepressant-like activity in Wistar rat assessed as decrease in immobility time at 2.5 mg/kg, ip administered 30 mins prior to test measured for 5 mins by forced swim test; format: functional; design: scale not given: the % may be the effect or the level left
[9] = system: Mus musculus; test: Anxiolytic-like activity in Swiss albino mouse assessed as increase in number of punished crossings at 1 mg/kg, ip administered for 30 mins measured for 1 min post 3 sec electric shock by four-plate test; format: functional, organism-based
[10] = Drug level in human liver microsomes treated with aripiprazole at 50 uM preincubated for 5 mins followed by NADPH addition measured after 30 mins by UPLC-MS analysis; format: ADME, microsome; conditions: 0.5 h
[11] = system: P-gp; test: Activity at recombinant human Pgp expressed in cell membranes assessed as basal ATPase activity at 200 uM after 200 mins by P-gp Glo assay relative to control; format: ADME; conditions: cell membranes expressing recombinant human P-gp, read-out: Activity
[12] = Activity at recombinant human Pgp expressed in cell membranes assessed as basal ATPase activity at 100 uM after 200 mins by P-gp Glo assay relative to control; format: ADME
[13] = Retention time of the compound by UPLC-MS analysis; format: physicochemical
[14] = Drug level in mouse liver microsomes treated with MF-8 at 50 uM preincubated for 5 mins followed by NADPH addition measured after 30 mins by UPLC-MS analysis; format: ADME, microsome; conditions: 0.5 h
[15] = Drug level in human liver microsomes treated with MF-8 at 50 uM preincubated for 5 mins followed by NADPH addition measured after 30 mins by UPLC-MS analysis; format: ADME, microsome; conditions: 0.5 h
[16] = Drug level in rat liver microsomes treated with MF-8 at 50 uM preincubated for 5 mins followed by NADPH addition measured after 30 mins by UPLC-MS analysis; format: ADME, microsome; conditions: 0.5 h
[17] = system: Mus musculus; test: Antidepressant-like activity in Swiss albino mouse assessed as decrease in immobility time at 10 to 20 mg/kg, ip administered 30 mins prior to test measured for last 4 mins of 6 mins observation by forced swim test; format: functional, organism-based
[18] = system: Rattus norvegicus; test: Antidepressant-like activity in Wistar rat assessed as decrease in immobility time at 30 mg/kg, ip administered 30 mins prior to test measured for 5 mins by forced swim test; format: functional; design: scale not given: the % may be the effect or the level left
[19] = system: HEK293; test: Cytotoxicity against HEK293 cells assessed as reduction in cell viability at 250 uM after 48 hrs by EZ4U labeling based assay; conditions: human, hek293, 48 h
[20] = Drug metabolism in human liver microsomes at 50 uM preincubated for 5 mins followed by NADPH addition measured after 30 mins by UPLC-MS analysis; format: ADME, microsome; conditions: 0.5 h
[21] = Drug metabolism in mouse liver microsomes at 50 uM preincubated for 5 mins followed by NADPH addition measured after 30 mins by UPLC-MS analysis; format: ADME, microsome; conditions: 0.5 h
[22] = system: Rattus norvegicus; test: Antidepressant-like activity in Wistar rat assessed as decrease in immobility time at 5 mg/kg, ip administered 60 mins prior to test measured for 5 mins by forced swim test; format: functional; design: scale not given: the % may be the effect or the level left
[23] = system: Mus musculus; test: Antidepressant-like activity in Swiss albino mouse assessed as decrease in immobility time at 1.25 to 2.5 mg/kg, ip administered 60 mins prior to test measured for last 4 mins of 6 mins observation by forced swim test; format: functional, organism-based
[24] = system: Salmonella typhimurium; test: Mutagenicity in Salmonella typhimurium TA100 assessed as revertant colonies at 1 to 10 uM by Ames test; format: toxicity, organism-based; conditions: salmonella enterica subsp. enterica serovar typhimurium
[25] = system: P-gp; test: Activity at recombinant human Pgp expressed in cell membranes assessed as basal ATPase activity at 50 uM after 40 mins by P-gp Glo assay relative to control; format: ADME; conditions: cell membranes expressing recombinant human P-gp, read-out: Activity
[26] = system: Mus musculus; test: Toxicity in Swiss albino mouse assessed as effect on spontaneous locomotor activity at 2.5 to 10 mg/kg, ip measured for 1 min; format: organism-based; conditions: in vivo
[27] = Intrinsic clearance in human liver microsomes at 50 uM preincubated for 5 mins followed by NADPH addition measured up to 45 mins; format: ADME, microsome; conditions: read-out: CLH
[28] = Intrinsic clearance in mouse liver microsomes at 50 uM preincubated for 5 mins followed by NADPH addition measured up to 30 mins; format: ADME, microsome; conditions: read-out: CLH
[29] = system: Mus musculus; test: Anxiolytic-like activity in Swiss albino mouse assessed as increase in number of punished crossings at 2.5 to 5 mg/kg, ip administered for 60 mins measured for 1 min post 3 sec electric shock by four-plate test; format: functional, organism-based
[30] = Cytotoxicity against human HepG2 cells assessed as ATP level at 100 uM after 120 mins by bioluminescence-based assay relative to control; format: cell-based; conditions: read-out: Activity
[31] = system: Mus musculus; test: Anxiolytic-like activity in Swiss albino mouse assessed as increase in number of punished crossings at 10 mg/kg, ip administered for 60 mins measured for 1 min post 3 sec electric shock by four-plate test; format: functional
[32] = system: Rattus norvegicus; test: Toxicity in Wistar rat assessed as effect on spontaneous locomotor activity at 2.5 to 10 mg/kg, ip measured for 5 mins by open field test; format: organism-based; conditions: in vivo
[33] = Cytotoxicity against HEK293 cells assessed as cell viability at 100 uM after 48 hrs by EZ4U labeling based assay relative to control; conditions: human, read-out: Activity
[34] = Intrinsic clearance in rat liver microsomes at 50 uM preincubated for 5 mins followed by NADPH addition measured up to 30 mins; format: ADME, microsome; conditions: read-out: CLH
[35] = system: Mus musculus; test: Antidepressant-like activity in Swiss albino mouse assessed as decrease in immobility time at 5 mg/kg, ip administered 60 mins prior to test measured for last 4 mins of 6 mins observation by forced swim test; format: functional; design: scale not given: the % may be the effect or the level left
[36] = Drug metabolism in rat liver microsomes at 50 uM preincubated for 5 mins followed by NADPH addition measured after 30 mins by UPLC-MS analysis; format: ADME, microsome; conditions: 0.5 h
[37] = system: HepG2; test: Cytotoxicity against human HepG2 cells assessed as reduction in ATP level at 1 to 100 uM after 120 mins by bioluminescence-based assay; format: cell-based; conditions: hepg2, 2 h
[38] = target: CYP2D6 (Homo sapiens, UniProt P10635); test: Inhibition of CYP2D6 (unknown origin) assessed as residual activity at 25 uM using luciferin-ME EGE as substrate by CYP450-Glo assay; format: ADME; conditions: CYP2D6 enzyme (unknown origin), probe luciferin-ME EGE, read-out: Activity
[39] = system: Mus musculus; test: Toxicity in Swiss albino mouse assessed as effect on spontaneous locomotor activity at 1.25 to 5 mg/kg, ip measured for 2 to 6 mins; format: organism-based; conditions: in vivo
[40] = target: Cytochrome P450 2D6 (Homo sapiens, UniProt P10635); test: Inhibition of CYP2D6 (unknown origin) at 0.025 to 25 uM using luciferin-ME EGE as substrate by CYP450-Glo assay; format: ADME
[41] = system: Rattus norvegicus; test: Antidepressant-like activity in Wistar rat assessed as decrease in immobility time at 10 mg/kg, ip administered 60 mins prior to test measured for 5 mins by forced swim test; format: functional; design: scale not given: the % may be the effect or the level left
[42] = Drug metabolism in mouse liver microsomes assessed as hydroxylated main metabolite formation at 50 uM preincubated for 5 mins followed by NADPH addition measured after 30 mins by UPLC-MS analysis; format: ADME, microsome; conditions: 0.5 h
[43] = Drug metabolism in rat liver microsomes assessed as DM1451 formation at 50 uM preincubated for 5 mins followed by NADPH addition measured after 30 mins by UPLC-MS analysis; format: ADME, microsome; conditions: 0.5 h
[44] = Drug metabolism in mouse liver microsomes assessed as DM1451 formation at 50 uM preincubated for 5 mins followed by NADPH addition measured after 30 mins by UPLC-MS analysis; format: ADME, microsome; conditions: 0.5 h
[45] = Drug metabolism in human liver microsomes assessed as OPC-14857 formation at 50 uM preincubated for 5 mins followed by NADPH addition measured after 30 mins by UPLC-MS analysis; format: ADME, microsome; conditions: 0.5 h
[46] = system: HEK293; test: Cytotoxicity against HEK293 cells assessed as reduction in cell viability at 1 uM after 48 hrs by EZ4U labeling based assay; conditions: human, hek293, 48 h

Chain of CYP2D6 (P10635 whole entry): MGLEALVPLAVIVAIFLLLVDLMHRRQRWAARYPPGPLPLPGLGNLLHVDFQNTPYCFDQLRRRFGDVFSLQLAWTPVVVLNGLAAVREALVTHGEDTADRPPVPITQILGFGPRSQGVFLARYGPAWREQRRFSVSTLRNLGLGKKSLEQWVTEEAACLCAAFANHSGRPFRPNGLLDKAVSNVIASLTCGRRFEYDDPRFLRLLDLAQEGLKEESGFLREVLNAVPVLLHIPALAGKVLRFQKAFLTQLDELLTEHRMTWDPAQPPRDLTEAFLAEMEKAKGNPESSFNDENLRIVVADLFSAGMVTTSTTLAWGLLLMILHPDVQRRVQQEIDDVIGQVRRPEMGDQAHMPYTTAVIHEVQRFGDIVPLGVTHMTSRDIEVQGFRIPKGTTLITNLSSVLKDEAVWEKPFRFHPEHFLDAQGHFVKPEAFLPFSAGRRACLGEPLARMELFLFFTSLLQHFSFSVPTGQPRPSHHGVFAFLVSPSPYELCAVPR
Chain of Cytochrome P450 2D6 (P10635 whole entry): as above

Molecule: O=C1CCc2ccc(OCCCCN3CCN(c4ccc(O)c(Cl)c4Cl)CC3)cc2N1
- Drug metabolism [1]: Metabolite_Detected
- Drug metabolism [2]: Metabolite_Detected

Molecule: CN1C(=O)CN=C(c2ccccc2)c2cc(Cl)ccc21
- Activity [3]: Active

Molecule: CCn1cc(C(=O)O)c(=O)c2cc(F)c(N3CCNCC3)cc21 [NORFLOXACIN]
- Papp at 5 h, 200 µM [4]: 0.95 ×10⁻⁶ cm/s

Molecule: N#CC(C#N)=NNc1cccc(Cl)c1 [CARBONYL CYANIDE M-CHLOROPHENYLHYDRAZONE]
- Activity [5]: 78%

Molecule: CC1CCN(CC[C@H]2CCCN2S(=O)(=O)c2cccc(O)c2)CC1
- Activity [6]: 30%
- Activity [7]: Active
- Activity [8]: 22%
- Activity [9]: Active

Molecule: O=c1ccc2ccc(OCCCCN3CCN(c4cccc(Cl)c4Cl)CC3)cc2[nH]1
- Drug metabolism [10]: Metabolite_Detected

Molecule: COc1ccc(CCN(C)CCCC(C#N)(c2ccc(OC)c(OC)c2)C(C)C)cc1OC (stereo not given)
- activity at 200 min, 200 µM [11]: > 160%

Molecule: SODIUM ORTHOVANAD
- Activity [12]: 0%

Molecule: COc1cc(O)ccc1N1CCN(CC(O)CN2C(=O)NC(C)(c3ccc(F)cc3)C2=O)CC1 (stereo not given)
- Retention_time [13]: 3.4 min
- Drug metabolism [14]: Metabolite_Detected
- Drug metabolism [15]: Metabolite_Detected
- Drug metabolism [16]: Metabolite_Detected

Molecule: CN(C)CCCN1c2ccccc2CCc2ccccc21 [IMIPRAMINE]
- Activity [17]: Active
- Activity [18]: 30%

Molecule: COc1ccccc1N1CCN(CC(O)CN2C(=O)NC(C)(c3ccc(F)cc3)C2=O)CC1 (stereo not given)
- Activity [19]: Toxic
- Drug metabolism [20]: Metabolite_Detected
- Drug metabolism [21]: Metabolite_Detected
- Activity [22]: 35%
- Activity [23]: inactive
- Activity [24]: Non-Toxic
- activity at 40 min, 50 µM [25]: 88.7%
- Activity [26]: Non-Toxic
- CLint scaled at 50 µM [27]: 8.2 mL/min/kg
- Papp at 5 h, 200 µM [4]: 2.3 ×10⁻⁶ cm/s
- CLint scaled at 50 µM [28]: 17.2 mL/min/kg
- Activity [29]: inactive
- viability at 2 h, 100 µM [30]: 90%
- Activity [31]: 30%
- Activity [32]: Non-Toxic
- viability at 48 h, 100 µM [33]: 89.2%
- CLint scaled at 50 µM [34]: 21.2 mL/min/kg
- Activity [35]: 36%
- Drug metabolism [36]: Metabolite_Detected
- Activity [37]: Non-Toxic
- activity at 25 µM [38]: 69.4%
- Activity [39]: Non-Toxic
- inhibition (INH) [40]: Not Active
- Activity [41]: 26%

Molecule: O=C1CCc2ccc(OCCCCN3CCN(c4cccc(Cl)c4Cl)CC3)cc2N1 [ARIPIPRAZOLE]
- Drug metabolism [42]: Metabolite_Detected
- CLint scaled at 50 µM [28]: 12.5 mL/min/kg
- Drug metabolism [43]: Metabolite_Detected
- Drug metabolism [44]: Metabolite_Detected
- CLint scaled at 50 µM [34]: 7.02 mL/min/kg
- Drug metabolism [45]: Metabolite_Detected

Molecule: Cn1c(=O)c2c(ncn2C)n(C)c1=O [CAFFEINE]
- Papp at 5 h, 200 µM [4]: 3.61 ×10⁻⁶ cm/s

Molecule: COc1cccc2c1C(=O)c1c(O)c3c(c(O)c1C2=O)C[C@@](O)(C(=O)CO)C[C@@H]3O[C@H]1C[C@H](N)[C@H](O)[C@H](C)O1 [DOXORUBICIN]
- Activity [46]: Toxic
